ChEMBL document CHEMBL4800723, “Data for DCP probe BI-1942” (2021)

Experiments:
[1] = target: Muscarinic acetylcholine receptor M1 (Homo sapiens) (UniProt P11229); experiment: M1/H Eurofins SafetyScreen44 (BI); conditions: Compound concentration 10.0 uM
[2] = target: Caspase-1 (Homo sapiens) (UniProt P29466); experiment: CASPASE-1(H) Eurofins SafetyScreen44 (BI); conditions: Compound concentration 10.0 uM
[3] = target: Alpha-1B adrenergic receptor (Homo sapiens) (UniProt P35368); conditions: Compound concentration 10.0 uM
[4] = target: T1, GABA-A receptor; anion channel (Rattus norvegicus) (UniProt O09028+P15431+P18506+P18508+P19969+P20236+P23574+P23576+P28471+P28473+P30191+P62813+P63079+P63138+Q91ZM7+Q9ES14); conditions: Compound concentration 10.0 uM
[5] = target: Alpha-1D adrenergic receptor (Homo sapiens) (UniProt P25100); conditions: Compound concentration 10.0 uM
[6] = target: Muscarinic acetylcholine receptor M2 (Homo sapiens) (UniProt P08172); conditions: Compound concentration 10.0 uM
[7] = target: 72 kDa type IV collagenase (Homo sapiens) (UniProt P08253); experiment: MMP-2 (H) Eurofins SafetyScreen44 (BI); conditions: Compound concentration 10.0 uM
[8] = species on record: Rattus norvegicus; conditions: Compound concentration 10.0 uM
[9] = target: Angiotensin-converting enzyme (Homo sapiens) (UniProt P12821); experiment: ACE(HU_AMTCH400) Eurofins SafetyScreen44 (BI); conditions: Compound concentration 10.0 uM
[10] = target: Caspase-3 (Homo sapiens) (UniProt P42574); experiment: CASPASE-3 Eurofins SafetyScreen44 (BI); conditions: Compound concentration 10.0 uM
[11] = target: 3',5'-cyclic-AMP phosphodiesterase 4D (Homo sapiens) (UniProt Q08499); experiment: PDE4D2 Eurofins SafetyScreen44 (BI); conditions: Compound concentration 10.0 uM
[12] = target: 5-hydroxytryptamine receptor 2C (Homo sapiens) (UniProt P28335); conditions: Compound concentration 10.0 uM
[13] = target: Muscarinic acetylcholine receptor M3 (Homo sapiens) (UniProt P20309); conditions: Compound concentration 10.0 uM
[14] = target: Proteinase-activated receptor 1 (Homo sapiens) (UniProt P25116); experiment: PAR1(H)AGON Eurofins SafetyScreen44 (BI); conditions: filed as agonist, Compound concentration 10.0 uM
[15] = target: Prostaglandin G/H synthase 1 (Homo sapiens) (UniProt P23219); experiment: COX-1 Eurofins SafetyScreen44 (BI); conditions: Compound concentration 10.0 uM
[16] = target: Caspase-10 (Homo sapiens) (UniProt Q92851); experiment: CASPASE-10(H) Eurofins SafetyScreen44 (BI); conditions: Compound concentration 10.0 uM
[17] = target: Interstitial collagenase (Homo sapiens) (UniProt P03956); experiment: MMP1 (H) Eurofins SafetyScreen44 (BI); conditions: Compound concentration 10.0 uM
[18] = target: Caspase-2 (Homo sapiens) (UniProt P42575); experiment: CASPASE-2(H) Eurofins SafetyScreen44 (BI); conditions: Compound concentration 10.0 uM
[19] = target: Muscarinic acetylcholine receptor M3 (Homo sapiens) (UniProt P20309); experiment: M3/H Eurofins SafetyScreen44 (BI); conditions: Compound concentration 10.0 uM
[20] = target: Beta-1 adrenergic receptor (Homo sapiens) (UniProt P08588); experiment: BETA1/HUM Eurofins SafetyScreen44 (BI); conditions: Compound concentration 10.0 uM
[21] = target: Angiotensin-converting enzyme (Homo sapiens) (UniProt P12821); experiment: ACE(HU) Eurofins SafetyScreen44 (BI); conditions: Compound concentration 10.0 uM
[22] = target: Caspase-7 (Homo sapiens) (UniProt P55210); experiment: CASPASE-7(H) Eurofins SafetyScreen44 (BI); conditions: Compound concentration 10.0 uM
[23] = target: Caspase-8 (Homo sapiens) (UniProt Q14790); experiment: CASPASE8_CE Eurofins SafetyScreen44 (BI); conditions: Compound concentration 10.0 uM
[24] = target: Delta-type opioid receptor (Homo sapiens) (UniProt P41143); experiment: DELTA2/H Eurofins SafetyScreen44 (BI); conditions: Compound concentration 10.0 uM
[25] = target: T1, GABA-A receptor; anion channel (Rattus norvegicus); experiment: BZD/CENTR/R Eurofins SafetyScreen44 (BI); type: protein-complex assay; conditions: Compound concentration 10.0 uM
[26] = target: Delta-type opioid receptor (Homo sapiens) (UniProt P41143); conditions: Compound concentration 10.0 uM
[27] = target: Neutrophil collagenase (Homo sapiens) (UniProt P22894); experiment: MMP-8(H) Eurofins SafetyScreen44 (BI); conditions: Compound concentration 10.0 uM
[28] = target: D(1A) dopamine receptor (Homo sapiens) (UniProt P21728); experiment: D1/H Eurofins SafetyScreen44 (BI); conditions: filed as antagonist, Compound concentration 10.0 uM
[29] = target: Disintegrin and metalloproteinase domain-containing protein 17 (Homo sapiens) (UniProt P78536); experiment: TACE Eurofins SafetyScreen44 (BI); conditions: Compound concentration 10.0 uM
[30] = target: Cathepsin Z (Homo sapiens) (UniProt Q9UBR2); experiment: CATHEPSINX(H) Eurofins SafetyScreen44 (BI); conditions: Compound concentration 10.0 uM
[31] = target: Chymase (Homo sapiens) (UniProt P23946); conditions: Compound concentration 10.0 uM
[32] = target: Sodium-dependent serotonin transporter (Homo sapiens) (UniProt P31645); conditions: Compound concentration 10.0 uM
[33] = target: 5-hydroxytryptamine receptor 3A (Homo sapiens) (UniProt P46098); conditions: Compound concentration 10.0 uM
[34] = target: D(2) dopamine receptor (Homo sapiens) (UniProt P14416); experiment: D2SH_AGON Eurofins SafetyScreen44 (BI); conditions: filed as agonist, Compound concentration 10.0 uM
[35] = target: 5-hydroxytryptamine receptor 7 (Homo sapiens) (UniProt P34969); conditions: Compound concentration 10.0 uM
[36] = target: Beta-secretase 1 (Homo sapiens) (UniProt P56817); experiment: BACE-1 Eurofins SafetyScreen44 (BI); conditions: Compound concentration 10.0 uM
[37] = target: Cathepsin E (Homo sapiens) (UniProt P14091); experiment: CATHEPSINE Eurofins SafetyScreen44 (BI); conditions: Mus musculus; Compound concentration 10.0 uM
[38] = species on record: Rattus norvegicus; experiment: K+/VOLT/RA Eurofins SafetyScreen44 (BI); conditions: Compound concentration 10.0 uM
[39] = target: Alpha-2B adrenergic receptor (Homo sapiens) (UniProt P18089); conditions: Compound concentration 10.0 uM
[40] = target: Neuronal acetylcholine receptor; alpha4/beta2 (Homo sapiens) (UniProt P17787+P43681); experiment: N_NEURO_A4B2 Eurofins SafetyScreen44 (BI); type: protein-complex assay; conditions: filed as agonist, Compound concentration 10.0 uM
[41] = target: Prothrombin (Homo sapiens) (UniProt P00734); experiment: THROMBIN Eurofins SafetyScreen44 (BI); conditions: Compound concentration 10.0 uM
[42] = target: Sodium-dependent serotonin transporter (Homo sapiens) (UniProt P31645); experiment: SLC6A4/H Eurofins SafetyScreen44 (BI); conditions: filed as antagonist, Compound concentration 10.0 uM
[43] = target: hERG (KCNH2) (Homo sapiens, UniProt Q12809); experiment: HERG_DOFETILIDE Eurofins SafetyScreen44 (BI); set-up: mode of action inhibitor; conditions: probe [3H] Dofetilide, compound concentration 10 uM, read-out: % Ctrl
[44] = target: Macrophage metalloelastase (Homo sapiens) (UniProt P39900); experiment: MMP-12 Eurofins SafetyScreen44 (BI); conditions: Compound concentration 10.0 uM

Sodium-dependent serotonin transporter (Homo sapiens), sequence (P31645 whole entry, looked up): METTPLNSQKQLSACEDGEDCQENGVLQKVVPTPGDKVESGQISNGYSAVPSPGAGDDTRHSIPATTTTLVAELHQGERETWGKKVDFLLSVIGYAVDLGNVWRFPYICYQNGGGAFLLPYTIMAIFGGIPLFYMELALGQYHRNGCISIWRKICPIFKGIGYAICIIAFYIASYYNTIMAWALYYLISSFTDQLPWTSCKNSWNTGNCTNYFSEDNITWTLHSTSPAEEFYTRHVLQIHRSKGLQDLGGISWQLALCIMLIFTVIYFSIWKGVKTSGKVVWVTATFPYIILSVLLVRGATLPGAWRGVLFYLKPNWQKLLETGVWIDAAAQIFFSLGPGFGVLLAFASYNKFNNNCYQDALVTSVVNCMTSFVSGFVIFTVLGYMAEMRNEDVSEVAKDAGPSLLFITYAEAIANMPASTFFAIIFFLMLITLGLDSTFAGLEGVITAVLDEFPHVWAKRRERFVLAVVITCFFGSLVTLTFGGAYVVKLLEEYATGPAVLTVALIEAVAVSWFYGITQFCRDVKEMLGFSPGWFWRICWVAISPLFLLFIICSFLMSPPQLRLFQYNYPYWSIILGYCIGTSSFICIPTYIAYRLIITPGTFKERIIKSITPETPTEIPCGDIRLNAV
Delta-type opioid receptor (Homo sapiens), sequence (P41143 whole entry): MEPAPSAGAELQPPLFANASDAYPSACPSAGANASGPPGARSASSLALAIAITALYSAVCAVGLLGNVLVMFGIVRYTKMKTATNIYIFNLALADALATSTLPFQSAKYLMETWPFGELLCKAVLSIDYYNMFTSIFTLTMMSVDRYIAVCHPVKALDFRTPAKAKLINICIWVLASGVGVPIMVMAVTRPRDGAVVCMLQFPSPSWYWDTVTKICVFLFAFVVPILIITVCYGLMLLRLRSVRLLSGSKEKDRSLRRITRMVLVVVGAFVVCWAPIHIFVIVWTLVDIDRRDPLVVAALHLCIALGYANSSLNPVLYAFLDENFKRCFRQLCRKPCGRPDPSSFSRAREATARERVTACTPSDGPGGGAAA
Angiotensin-converting enzyme (Homo sapiens), sequence (P12821 whole entry): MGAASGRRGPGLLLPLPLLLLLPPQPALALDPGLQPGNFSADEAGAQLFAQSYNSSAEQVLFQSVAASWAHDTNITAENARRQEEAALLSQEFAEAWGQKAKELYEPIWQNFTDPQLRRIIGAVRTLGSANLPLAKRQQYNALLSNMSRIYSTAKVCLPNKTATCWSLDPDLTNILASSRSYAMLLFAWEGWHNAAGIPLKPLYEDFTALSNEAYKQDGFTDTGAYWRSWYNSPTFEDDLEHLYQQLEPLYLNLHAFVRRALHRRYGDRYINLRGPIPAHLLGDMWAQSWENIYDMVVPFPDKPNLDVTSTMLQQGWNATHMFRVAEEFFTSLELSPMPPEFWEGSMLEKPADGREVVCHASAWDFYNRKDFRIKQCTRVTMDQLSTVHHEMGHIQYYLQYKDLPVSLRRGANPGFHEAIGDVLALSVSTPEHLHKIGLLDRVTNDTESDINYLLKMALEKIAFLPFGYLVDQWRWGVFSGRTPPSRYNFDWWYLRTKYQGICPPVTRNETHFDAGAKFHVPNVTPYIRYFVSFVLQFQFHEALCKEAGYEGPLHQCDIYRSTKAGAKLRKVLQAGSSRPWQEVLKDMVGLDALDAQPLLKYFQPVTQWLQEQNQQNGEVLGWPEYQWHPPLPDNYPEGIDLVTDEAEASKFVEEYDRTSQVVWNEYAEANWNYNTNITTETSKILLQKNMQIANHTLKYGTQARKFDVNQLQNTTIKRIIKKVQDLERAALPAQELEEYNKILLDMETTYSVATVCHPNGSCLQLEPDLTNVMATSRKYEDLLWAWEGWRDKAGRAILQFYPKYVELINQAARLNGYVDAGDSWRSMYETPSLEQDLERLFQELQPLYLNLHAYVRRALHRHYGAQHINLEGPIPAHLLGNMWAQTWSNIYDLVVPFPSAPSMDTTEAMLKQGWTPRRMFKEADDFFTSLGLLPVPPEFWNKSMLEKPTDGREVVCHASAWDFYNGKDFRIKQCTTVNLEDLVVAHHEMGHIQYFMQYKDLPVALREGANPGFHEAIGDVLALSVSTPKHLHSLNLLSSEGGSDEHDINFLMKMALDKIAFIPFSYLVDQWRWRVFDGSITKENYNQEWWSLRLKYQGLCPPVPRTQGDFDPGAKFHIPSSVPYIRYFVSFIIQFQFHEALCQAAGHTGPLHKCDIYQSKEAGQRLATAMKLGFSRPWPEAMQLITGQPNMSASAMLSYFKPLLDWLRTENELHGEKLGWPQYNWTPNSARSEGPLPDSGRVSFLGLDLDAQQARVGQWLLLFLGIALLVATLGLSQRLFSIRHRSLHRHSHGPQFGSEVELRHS
Muscarinic acetylcholine receptor M3 (Homo sapiens), sequence (P20309 whole entry, looked up): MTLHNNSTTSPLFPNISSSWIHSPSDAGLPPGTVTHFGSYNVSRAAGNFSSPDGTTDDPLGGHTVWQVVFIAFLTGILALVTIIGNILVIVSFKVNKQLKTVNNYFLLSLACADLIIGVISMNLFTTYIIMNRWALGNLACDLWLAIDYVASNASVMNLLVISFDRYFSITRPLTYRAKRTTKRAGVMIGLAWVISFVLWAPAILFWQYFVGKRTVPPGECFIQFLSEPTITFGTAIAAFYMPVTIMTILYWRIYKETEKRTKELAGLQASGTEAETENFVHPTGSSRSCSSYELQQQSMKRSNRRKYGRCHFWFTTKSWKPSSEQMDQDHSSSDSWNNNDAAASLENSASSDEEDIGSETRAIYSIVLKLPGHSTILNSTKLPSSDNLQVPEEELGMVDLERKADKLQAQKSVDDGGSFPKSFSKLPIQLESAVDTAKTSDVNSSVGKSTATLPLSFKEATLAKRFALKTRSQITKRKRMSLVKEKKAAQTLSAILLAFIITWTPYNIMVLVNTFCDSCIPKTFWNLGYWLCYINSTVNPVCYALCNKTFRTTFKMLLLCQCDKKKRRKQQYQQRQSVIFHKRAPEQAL
Caspase-2 (Homo sapiens), sequence (P42575 170-325 limits assumed): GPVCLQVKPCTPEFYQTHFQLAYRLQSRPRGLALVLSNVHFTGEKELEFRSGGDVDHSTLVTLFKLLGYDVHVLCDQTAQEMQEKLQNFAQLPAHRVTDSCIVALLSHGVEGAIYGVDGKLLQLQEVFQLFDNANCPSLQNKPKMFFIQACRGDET
Caspase-2 (Homo sapiens), sequence (P42575 334-452 limits assumed): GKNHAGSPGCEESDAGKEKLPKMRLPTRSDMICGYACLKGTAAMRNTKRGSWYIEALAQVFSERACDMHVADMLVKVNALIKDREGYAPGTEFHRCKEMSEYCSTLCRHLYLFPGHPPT
D(2) dopamine receptor (Homo sapiens), sequence (P14416 whole entry): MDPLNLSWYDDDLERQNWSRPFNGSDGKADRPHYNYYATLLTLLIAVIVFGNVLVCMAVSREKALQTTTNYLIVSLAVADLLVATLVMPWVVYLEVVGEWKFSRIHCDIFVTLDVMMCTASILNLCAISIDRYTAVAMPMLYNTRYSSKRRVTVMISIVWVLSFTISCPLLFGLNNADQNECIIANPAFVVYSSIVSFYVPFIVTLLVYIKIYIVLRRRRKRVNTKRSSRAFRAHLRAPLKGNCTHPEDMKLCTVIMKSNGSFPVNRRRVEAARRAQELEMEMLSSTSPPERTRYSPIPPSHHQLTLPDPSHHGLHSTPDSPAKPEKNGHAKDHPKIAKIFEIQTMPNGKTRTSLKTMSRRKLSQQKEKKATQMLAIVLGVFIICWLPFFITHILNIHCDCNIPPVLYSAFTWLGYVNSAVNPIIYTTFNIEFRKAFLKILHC
Caspase-1 (Homo sapiens), sequence (P29466 120-297 limits assumed): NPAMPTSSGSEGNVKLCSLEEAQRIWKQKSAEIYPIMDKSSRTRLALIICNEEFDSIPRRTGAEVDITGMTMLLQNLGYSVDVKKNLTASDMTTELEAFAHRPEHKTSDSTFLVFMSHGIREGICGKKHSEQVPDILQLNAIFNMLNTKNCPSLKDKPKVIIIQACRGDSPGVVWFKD
Caspase-1 (Homo sapiens), sequence (P29466 317-404 limits assumed): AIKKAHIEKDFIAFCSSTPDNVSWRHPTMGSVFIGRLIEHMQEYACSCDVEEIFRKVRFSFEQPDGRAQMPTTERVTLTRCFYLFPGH
5-hydroxytryptamine receptor 7 (Homo sapiens), sequence (P34969 whole entry): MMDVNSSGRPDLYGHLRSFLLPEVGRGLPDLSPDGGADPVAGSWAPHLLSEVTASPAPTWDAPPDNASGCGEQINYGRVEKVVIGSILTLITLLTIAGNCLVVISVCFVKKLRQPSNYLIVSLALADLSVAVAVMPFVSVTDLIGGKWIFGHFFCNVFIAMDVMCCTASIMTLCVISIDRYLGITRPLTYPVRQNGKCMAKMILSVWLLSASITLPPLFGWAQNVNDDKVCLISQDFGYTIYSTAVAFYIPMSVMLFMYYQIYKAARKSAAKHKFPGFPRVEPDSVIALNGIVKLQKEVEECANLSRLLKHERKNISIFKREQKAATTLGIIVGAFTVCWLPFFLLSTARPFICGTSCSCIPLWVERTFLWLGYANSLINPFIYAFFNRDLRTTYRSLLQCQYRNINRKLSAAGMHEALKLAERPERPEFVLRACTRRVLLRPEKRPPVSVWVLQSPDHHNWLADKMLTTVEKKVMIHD
Interstitial collagenase (Homo sapiens), sequence (P03956 whole entry): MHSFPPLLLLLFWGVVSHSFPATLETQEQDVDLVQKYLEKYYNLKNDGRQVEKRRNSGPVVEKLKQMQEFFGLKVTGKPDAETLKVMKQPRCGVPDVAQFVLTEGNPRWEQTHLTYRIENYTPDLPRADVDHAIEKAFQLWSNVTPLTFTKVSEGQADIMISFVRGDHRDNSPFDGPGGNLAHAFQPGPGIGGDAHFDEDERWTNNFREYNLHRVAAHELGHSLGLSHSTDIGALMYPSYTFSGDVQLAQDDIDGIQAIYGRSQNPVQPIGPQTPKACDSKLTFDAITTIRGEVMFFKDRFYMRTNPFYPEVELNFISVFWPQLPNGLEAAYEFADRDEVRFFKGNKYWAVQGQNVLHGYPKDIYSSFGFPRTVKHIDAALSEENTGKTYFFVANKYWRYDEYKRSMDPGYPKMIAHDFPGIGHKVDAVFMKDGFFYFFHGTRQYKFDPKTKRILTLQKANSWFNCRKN

## CC[C@H](CC(=O)O)n1c(=O)c2ncccc2n(Cc2cn(C)c3cc(C)cc(C)c23)c1=O [BI-1942]
[1]
  residual activity: 112%
[2]
  residual activity: 103%
[3]
  inhibition: -5.58%
[4]
  inhibition: 6.86%
[5]
  inhibition: 12.1%
[6]
  inhibition: 12%
[7]
  residual activity: 103%
[8]
  inhibition: 12.2%
[9]
  residual activity: 99%
[10]
  residual activity: 97%
[11]
  residual activity: 106%
[12]
  inhibition: 1.02%
[13]
  inhibition: 23.8%
[14]
  residual activity: 100%
[15]
  residual activity: 134%
[16]
  residual activity: 111%
[17]
  residual activity: 97%
[18]
  residual activity: 156%
[19]
  residual activity: 98%
[20]
  residual activity: 105%
[21]
  residual activity: 127%
[22]
  residual activity: 101%
[23]
  residual activity: 88%
[24]
  residual activity: 95%
[25]
  residual activity: 129%
[26]
  inhibition: 9.83%
[27]
  residual activity: 107%
[28]
  residual activity: 96%
[29]
  residual activity: 88%
[30]
  residual activity: 98%
[31]
  residual activity: -1%
[32]
  inhibition: 4.96%
[33]
  inhibition: 0.31%
[34]
  residual activity: 108%
[35]
  inhibition: 27.2%
[36]
  residual activity: 106%
[37]
  residual activity: 106%
[38]
  residual activity: 104%
[39]
  inhibition: 0.56%
[40]
  residual activity: 103%
[41]
  residual activity: 102%
[42]
  residual activity: 86%
[43]
  activity at 10 µM: 105% (not active)
[44]
  residual activity: 104%
